In US20030165446A1, “Divalent manganese salts for reducing odour resulting from bacterial decomposition of human perspiration” (priority 2003, published 2003):

Tests used:
[1] = background statement; cited from earlier work
[2] = tested on: Corynebacterium xerosis; format: cell-based; conditions: dilutions in agar medium
Description: (§1) The microbiostatic activity of MnCl2 was determined in comparison with triclosan (deodorant active principle of the prior art) by the method of dilutions in agar medium.
(§2) One hundred μl of the ethanolic solution were added to 0.9 ml of agar culture heated beyond the melting point to 45° C. (medium chosen as a function of the nutrient requirements of the strain studied). After stirring with a Vortex device, successive dilutions in geometric progression in a ratio of 2 of the solution obtained were carried out using agar culture medium heated beyond the melting point to 45° C. One ml of each dilution was introduced into the wells of a microplate (Flacon [sic], 24 wells). Four μl of microbial suspension were deposited at the surface of the agar medium.
(§3) Two control wells were also prepared: 100 μl H2O+0.9 ml of culture medium (growth control), 100 μl ethanol+0.9 ml of culture medium.
(§4) After incubating under conditions (temperature, atmosphere and duration) dependent on the strain studied, the Minimum Inhibitory Concentration (MIC) is given by the lowest concentration of product which inhibits microbial growth.
(§5) Results: expressed in % w/v

[3] = tested on: Staphylococcus epidermidis; format: cell-based; conditions: dilutions in agar medium
Description: as §1, §2, §3, §4, §5

[4] = tested on: natural sweat (human axillary sweat); conditions: 1 mg of active material per ml of sweat, i.e. 0.1%, incubated 18 h then 24 h at 37° C., with respect to control sweat without deodorant agent; for Mean % of reduction in the odor annoyance (mean over 18 h and 24 h): hedonic grade
Description: A test of inhibition of the evolution of odors was carried out on natural sweat.
The principle of this test consists in adding the deodorant agent to fresh sweat and then in carrying out an olfactory evaluation by a jury of experts after incubating for 18 hours and then 24 hours at 37° C.
Thus, the axillary sweat was taken from several human models in a sauna and was combined to produce a sample of sweat. In order to obtain the characteristic nauseating odor of sweat, this sample of sweat was incubated […]. […] The active substance was then introduced into each of the flasks to be tested.
Per 1 mg of active material per ml of sweat, i.e. 0.1%: […]

Compound: Oc1cc(Cl)ccc1Oc1ccc(Cl)cc1Cl [Triclosan, 2,4,4′-trichloro-2′-hydroxydiphenyl ether]
- solubility in water [1]: insoluble
- Minimum Inhibitory Concentration (MIC) [2]: 4 × 10^−6 % w/v
- Minimum Inhibitory Concentration (MIC) [3]: 3 × 10^−8 % w/v
- Mean % of reduction in the strength of the odor (mean over 18 h and 24 h) [4]: −39%
- Mean % of reduction in the odor annoyance (mean over 18 h and 24 h) [4]: −27%

Compound: manganese chloride [MnCl2]
- Minimum Inhibitory Concentration (MIC) [2]: 0.23 % w/v
- Minimum Inhibitory Concentration (MIC) [3]: 0.23 % w/v
- Mean % of reduction in the strength of the odor (mean over 18 h and 24 h) [4]: −43%
- Mean % of reduction in the odor annoyance (mean over 18 h and 24 h) [4]: −31%
